{"source": "patent US20140370177A1", "about": "“COMPOSITIONS” (Givaudan S.A., priority 2011, published 2014)", "assay_type_in_all_cases": "in vivo, human", "key": {"[1]": {"tested_on": "sweet sensitive panelists", "test": "Iso-intensity in 5% sucrose solution (sweetness enhancement), formal sensory panel (R-index)", "method": "(§1) The sensory evaluation was conducted using a ranking method. Samples at ambient temperature were randomly presented in 20 ml blind aliquots (unidentifiable by panelists). Panels consisted of 20 sweet sensitive subjects and samples were presented in 2 replications over 1 session. After tasting each sample, the mouth was rinsed thoroughly with water at ambient temperature prior to tasting the next sample. Panelists were presented with 0.5%, 1.0%, and 1.5% sucrose solutions in water and two samples of stevioside/rebaudioside A at 30 and 45 ppm in water, respectively. Subjects were asked to rank the samples from low to high with respect to perceived sweet taste. R-indices were calculated for 30 and 45 ppm stevioside/rebaudioside A samples versus either 0.5%, 1.0% or 1.5% sucrose.\nThe sensory evaluation was conducted using the same method as described in Example 4. Panels consisted of 20 sweet sensitive subjects and samples were presented in 2 replications over 1 session. Panelists were presented with 20 mL of 5.5%, 6.0%, 6.5%, 7.0%, 8.0% sucrose solutions and one sample of 35 ppm stevioside/rebaudioside A in 5.0% sucrose, respectively. Subjects were asked to rank the samples from low to high with respect to perceived sweet taste. R-indices were calculated for 35 ppm stevioside/rebaudioside A in 5.0% sucrose sample versus either 6.0%, 6.5%, 7.0% or 8.0% sucrose.\nThe objective of this test was to determine the extent to which stevioside enhances sweetness perception of a 5% sucrose solution.\nThis example examined the effect of 30 ppm rebaudioside A on top of 5% sucrose."}, "[2]": {"tested_on": "experienced tasters", "test": "Comparison of upfront sweetness on top of 5% sucrose solution, 5 experienced tasters", "method": "Two mixtures, stevioside/rebaudioside A (3:1) and (2:1) were evaluated for their upfront sweetness in comparison with pure stevioside and rebaudioside A. Sensory evaluation was carried out with 5 experienced tasters. 30 ppm of stevioside/rebaudioside A (3:1), (2:1), and Rebaudioside A on top of 5% sucrose solution were prepared along with 20, 35, 45, 75 ppm stevioside in 5% sucrose solutions. Samples were prepared fresh and at room temperature and were paired and tasted with water rinsing in-between."}, "[3]": {"tested_on": "sweet sensitive panelists", "test": "Ranking test in water, sucrose iso-intensity, formal sensory panel (R-index)", "details": "for More Sweet Sample / R-index: in water", "method": "as §1\nThe sensory evaluation was conducted using the same method as described in Example 4. Panels consisted of 20 sweet sensitive subjects and samples were presented in 2 replications over 1 session. Panelists were presented with 20 mL of 0.5%, 1.0%, and 1.5% sucrose solutions in water and two samples of stevioside/rebaudioside A (3:1) at 35 and 40 ppm in water, respectively. Subjects were asked to rank the samples from low to high with respect to perceived sweet taste. R-indices were calculated for 35 and 40 ppm stevioside/rebaudioside A samples versus either 0.5%, 1.0% or 1.5% sucrose.\nTwo ounces of each sample was presented in random order to 20 sweet sensitive panelists. In two replications (over 1 session), Panelists were asked to rank the samples from least sweet to most sweet. The data were subjected to an R-index analysis."}, "[4]": {"details": "5% sucrose + 35 ppm Stevioside vs. 5.0% sucrose"}, "[5]": {"details": "5% sucrose + 35 ppm Stevioside vs. 6.0% sucrose"}, "[6]": {"details": "5% sucrose + 35 ppm Stevioside vs. 7.0% sucrose"}, "[7]": {"details": "30 ppm Stevioside vs. 0.5% sucrose"}, "[8]": {"details": "30 ppm Stevioside vs. 1.0% sucrose"}, "[9]": {"details": "30 ppm Stevioside vs. 1.5% sucrose"}, "[10]": {"details": "30 ppm Stevioside vs. 40 ppm Stevioside"}, "[11]": {"details": "40 ppm Stevioside vs. 0.5% sucrose"}, "[12]": {"details": "40 ppm Stevioside vs. 1.0% sucrose"}, "[13]": {"details": "40 ppm Stevioside vs. 1.5% sucrose"}, "[14]": {"details": "5% sucrose + 30 ppm RebA vs. 5% sucrose"}, "[15]": {"details": "5% sucrose + 30 ppm RebA vs. 6% sucrose"}, "[16]": {"details": "5% sucrose + 30 ppm RebA vs. 7% sucrose"}}, "data": [{"compound": "C=C1C[C@@]23CC[C@H]4[C@@](C)(CCC[C@@]4(C)C(=O)O[C@@H]4O[C@H](CO)[C@@H](O)[C@H](O)[C@H]4O)[C@@H]2CC[C@]1(O[C@@H]1O[C@H](CO)[C@@H](O)[C@H](O)[C@H]1O[C@@H]1O[C@H](CO)[C@@H](O)[C@H](O)[C@H]1O)C3", "note": "[Stevioside, stevioside]", "values": [{"measurement": "More Sweet Sample", "setting": "[1]; [4]", "value": 5, "unit": "% sucrose +"}, {"measurement": "R-index", "setting": "[1]; [4]", "value": 8.281}, {"measurement": "More Sweet Sample", "setting": "[1]; [5]", "value": 5, "unit": "% sucrose +"}, {"measurement": "R-index", "setting": "[1]; [5]", "value": 21.094}, {"measurement": "More Sweet Sample", "setting": "[1]; [6]", "value": 7.0, "unit": "% sucrose"}, {"measurement": "R-index", "setting": "[1]; [6]", "value": 78.125}, {"measurement": "Iso-sweet sucrose concentration by interpolation", "setting": "[1]; 35 ppm in 5% sucrose", "value": 6.5, "unit": "% sucrose"}, {"measurement": "Additional sucrose equivalence (sweetness enhancing effect)", "setting": "[1]; 35 ppm on top of 5% sucrose", "value": 0.5, "unit": "% sucrose equivalence"}, {"measurement": "Description of upfront sweetness", "setting": "[2]; 20, 35, 45, 75 ppm in 5% sucrose solutions", "value": "delayed onset and lack of the upfront sweetness"}, {"measurement": "Ranking of sweetness", "setting": "[2]; 75 ppm in 5% sucrose solution", "value": "ranked as the sweetest but not the most upfront one"}, {"measurement": "More Sweet Sample", "setting": "[3]; [7]", "value": 30, "unit": "ppm"}, {"measurement": "R-index", "setting": "[3]; [7]", "value": 25.625}, {"measurement": "More Sweet Sample", "setting": "[3]; [8]", "value": 1.0, "unit": "% sucrose"}, {"measurement": "R-index", "setting": "[3]; [8]", "value": 66.938}, {"measurement": "More Sweet Sample", "setting": "[3]; [9]", "value": 1.5, "unit": "% sucrose"}, {"measurement": "R-index", "setting": "[3]; [9]", "value": 94.750}, {"measurement": "More Sweet Sample", "setting": "[3]; [10]", "value": 40, "unit": "ppm"}, {"measurement": "R-index", "setting": "[3]; [10]", "value": 80.188}, {"measurement": "Sucrose equivalence of sweetness by interpolation", "setting": "[3]; 30 ppm in water", "value": 0.75, "unit": "% sucrose"}, {"measurement": "Isosweet sucrose concentration determined from 30 and 40 ppm data", "setting": "[3]; 35 ppm in water", "value": 1.0, "unit": "% sucrose"}, {"measurement": "More Sweet Sample", "setting": "[3]; [11]", "value": 40, "unit": "ppm"}, {"measurement": "R-index", "setting": "[3]; [11]", "value": 11.375}, {"measurement": "More Sweet Sample", "setting": "[3]; [12]", "value": 40, "unit": "ppm"}, {"measurement": "R-index", "setting": "[3]; [12]", "value": 29.094}, {"measurement": "More Sweet Sample", "setting": "[3]; [13]", "value": 1.5, "unit": "% sucrose"}, {"measurement": "R-index", "setting": "[3]; [13]", "value": 82.219}, {"measurement": "Sucrose equivalence of sweetness by interpolation", "setting": "[3]; 40 ppm in water", "value": 1.25, "unit": "% sucrose"}]}, {"compound": "C=C1C[C@@]23CC[C@H]4[C@@](C)(CCC[C@@]4(C)C(=O)O[C@@H]4O[C@H](CO)[C@@H](O)[C@H](O)[C@H]4O)[C@@H]2CC[C@]1(O[C@@H]1O[C@H](CO)[C@@H](O)[C@H](O[C@@H]2O[C@H](CO)[C@@H](O)[C@H](O)[C@H]2O)[C@H]1O[C@@H]1O[C@H](CO)[C@@H](O)[C@H](O)[C@H]1O)C3", "note": "[rebaudioside A]", "values": [{"measurement": "More Sweet Sample", "setting": "[1]; [14]", "value": 5, "unit": "% sucrose +"}, {"measurement": "R-index", "setting": "[1]; [14]", "value": 1.313}, {"measurement": "More Sweet Sample", "setting": "[1]; [15]", "value": 5, "unit": "% sucrose +"}, {"measurement": "R-index", "setting": "[1]; [15]", "value": 22.625}, {"measurement": "More Sweet Sample", "setting": "[1]; [16]", "value": 7, "unit": "% sucrose"}, {"measurement": "R-index", "setting": "[1]; [16]", "value": 89.000}, {"measurement": "Isosweet sucrose concentration by interpolation", "setting": "[1]; 30 ppm in 5% sucrose", "value": 6.5, "unit": "% sucrose"}, {"measurement": "Sucrose equivalence in enhancement", "setting": "[1]; 30 ppm on top of 5% sucrose", "value": 0.5, "unit": "% sucrose equivalence"}, {"measurement": "Iso-intense sucrose concentration", "setting": "[3]; 30 ppm, iso-intensity study", "value": 1, "unit": "% sucrose"}]}]}
